Data taken from paper PMC6835510, “Magnificamide, a β-Defensin-Like Peptide from the Mucus of the Sea Anemone Heteractis magnifica, Is a Strong Inhibitor of Mammalian α-Amylases” (Marine Drugs, 2019).
Bridge positions count the residues as written; N and C are the ends. Ends that are not written are not given here.

Legend:
hNav1.8 = experiment: Two-electrode voltage-clamp; type: cell-based, mammalian; conditions: 10 µM; Xenopus laevis oocytes; 18–22 °C
Text: (§1) For the expression of Nav channels (mammalian rNav1.2, rNav1.4, hNav1.5, mNav1.6 and hNav1.8 channels; the insect channel BgNav1 from Blattella germanica; and the auxiliary subunits rβ1, hβ1, and TipE) and Kv channels (mammalian rKv1.1, rKv1.2, hKv1.3, rKv1.4, rKv1.5, rKv1.6, rKv2.1, hKv3.1, rKv4.2, hKv10.1, and hERG; and Drosophila Shaker’s IR) in Xenopus laevis oocytes; the linearized plasmids were transcribed using the T7 or SP6 mMESSAGE-mMACHINE transcription kit (Ambion, Carlsbad, CA, USA). The harvesting of stage V–VI oocytes from anesthetized female Xenopus laevis frog was previously described. Oocytes were injected with 50 nL of cRNA at a concentration of 1 ng/nL using a microinjector (Drummond Scientific, Broomall, PA, USA). The oocytes were incubated in a solution containing 96-mM NaCl, 2-mM KCl, 1.8-mM CaCl2, 2-mM MgCl2, and 5-mM HEPES (pH 7.4), supplemented with 50 mg/L gentamycin sulfate.
(§2) Two-electrode voltage-clamp recordings were performed at room temperature (18–22 °C) using a Geneclamp 500 amplifier (Molecular Devices, Downingtown, PA, USA) controlled by a pClamp data acquisition system (Axon Instruments, Union City, CA, USA). Whole cell currents from oocytes were recorded 1–4 days after injection. The bath solution’s composition was 96-mM NaCl, 2-mM KCl, 1.8-mM CaCl2, 2-mM MgCl2, and 5-mM HEPES (pH 7.4). Toxins were applied directly to the bath. Resistances of both electrodes were kept between 0.8 and 1.5 MΩ. The elicited currents were sampled at 20 kHz (Nav) or 2 kHz (Kv), filtered at 2 kHz (Nav) or 0.5 kHz (Kv) using a four-pole low-pass Bessel filter. Leak subtraction was performed using a -P/4 protocol. […] For the electrophysiological analysis, a number of protocols were applied from a holding potential of −90 mV with a start-to-start interval of 0.2 Hz. Kv1.1–Kv1.6 and Shaker currents were evoked by 250-ms depolarizations to 0 mV followed by a 250 ms pulse to −50 mV from a holding potential of −90 mV. Current traces of hERG channels were elicited by applying a +40 mV prepulse for 2 s followed by −120 mV for 2 s. Kv2.1, Kv3.1, and Kv4.2 currents were elicited by 250 ms pulses to +20 mV from a holding potential of −90 mV. Kv10.1 currents were evoked by 2-s depolarizing pulses to 0 mV from a holding potential of −90 mV. Sodium current traces were evoked by 100-ms depolarization to the voltage corresponding to maximal sodium current in control conditions. All data were analyzed using pClamp Clampfit 10.0 (Molecular Devices, Downingtown, PA, USA) and Origin 7.5 software (Originlab, Northampton, MA, USA).

hNav1.5 = experiment: Two-electrode voltage-clamp; type: cell-based, mammalian; conditions: 10 µM; Xenopus laevis oocytes; 18–22 °C
Text: as §1, §2

rKv1.6 = experiment: Two-electrode voltage-clamp; type: cell-based, mammalian; conditions: 10 µM; Xenopus laevis oocytes; 18–22 °C
Text: as §1, §2

mNav1.6 = experiment: Two-electrode voltage-clamp; type: cell-based, mammalian; conditions: 10 µM; Xenopus laevis oocytes; 18–22 °C
Text: as §1, §2

rKv2.1 = experiment: Two-electrode voltage-clamp; type: cell-based, mammalian; conditions: 10 µM; Xenopus laevis oocytes; 18–22 °C
Text: as §1, §2

rNav1.2 = experiment: Two-electrode voltage-clamp; type: cell-based, mammalian; conditions: 10 µM; Xenopus laevis oocytes; 18–22 °C
Text: as §1, §2

rKv1.5 = experiment: Two-electrode voltage-clamp; type: cell-based, mammalian; conditions: 10 µM; Xenopus laevis oocytes; 18–22 °C
Text: as §1, §2

rKv1.1 = experiment: Two-electrode voltage-clamp; type: cell-based, mammalian; conditions: 10 µM; Xenopus laevis oocytes; 18–22 °C
Text: as §1, §2

hERG = experiment: Two-electrode voltage-clamp; type: cell-based, mammalian; conditions: 10 µM; Xenopus laevis oocytes; 18–22 °C
Text: as §1, §2

hKv1.3 = experiment: Two-electrode voltage-clamp; type: cell-based, mammalian; conditions: 10 µM; Xenopus laevis oocytes; 18–22 °C
Text: as §1, §2

hKv10.1 = experiment: Two-electrode voltage-clamp; type: cell-based, mammalian; conditions: 10 µM; Xenopus laevis oocytes; 18–22 °C
Text: as §1, §2

hKv3.1 = experiment: Two-electrode voltage-clamp; type: cell-based, mammalian; conditions: 10 µM; Xenopus laevis oocytes; 18–22 °C
Text: as §1, §2

rKv1.2 = experiment: Two-electrode voltage-clamp; type: cell-based, mammalian; conditions: 10 µM; Xenopus laevis oocytes; 18–22 °C
Text: as §1, §2

rKv1.4 = experiment: Two-electrode voltage-clamp; type: cell-based, mammalian; conditions: 10 µM; Xenopus laevis oocytes; 18–22 °C
Text: as §1, §2

rKv4.2 = experiment: Two-electrode voltage-clamp; type: cell-based, mammalian; conditions: 10 µM; Xenopus laevis oocytes; 18–22 °C
Text: as §1, §2

rNav1.4 = experiment: Two-electrode voltage-clamp; type: cell-based, mammalian; conditions: 10 µM; Xenopus laevis oocytes; 18–22 °C
Text: as §1, §2

[1] = tested on: fungi, Gram-positive or Gram-negative bacteria; experiment: Antimicrobial screening, overall; type: cell-based; conditions: 1, 5, 10, 20 µM
Description: The antimicrobial activity of r-magnificamide was tested against Gram-positive (Staphylococcus aureus ATCC 21027 and Bacillus subtilis ATCC6633), Gram-negative bacteria (Escherichia coli VKPM B-7935 and Pseudomonas aeruginosa ATCC 27853), and the fungus Candida albicans KMM 455 by the agar dilution method. Microbial strains were taken from the American Type Culture Collection (ATCC), Russian National Collection of Industrial Microorganisms (VKPM), and Collection of Marine Microorganisms (KMM) (Pacific Institute of Bioorganic Chemistry FEB RAS). To obtain a microbial lawn, 0.1 mL of a cell suspension (0.5 × 10^8 cells/mL) was uniformly distributed on agar surface in Petri dishes (15 g/L tryptic soy broth, 2 g/L bacto yeast extract, 1 g/L glucose, and 20 g/L agar for bacteria; for fungi 10 g/L of glucose was added). Wells with a diameter of 6 mm were punched into the agar and filled with 100 µL of the peptide solution at concentrations 1, 5, 10, and 20 µM. The plates were then incubated for 18 h at 37 °C for bacteria, and at 30 °C for the fungus. Minimum inhibitory concentration was determined by measuring the clear zone of inhibition around each well. All assays were performed independently three times.

SEGTSCYIYHGVYGICKAKCAEDMKAMAGMGVCEGDLCCYKTPW (disulfide 6-38, 16-33, 20-39) [r-magnificamide]
Channel modulating activity, Nav1.8 (hNav1.8): Not active | Channel modulating activity, Nav1.5 (hNav1.5): Not active | Channel modulating activity, Kv1.6 (rKv1.6): Not active | Channel modulating activity, Nav1.6 (mNav1.6): Not active | Channel modulating activity, Kv2.1 (rKv2.1): Not active | Channel modulating activity, Nav1.2 (rNav1.2): Not active | Channel modulating activity, Kv1.5 (rKv1.5): Not active | Channel modulating activity, Kv1.1 (rKv1.1): Not active | Channel modulating activity, hERG (hERG): Not active | Channel modulating activity, Kv1.3 (hKv1.3): Not active | Channel modulating activity, Kv10.1 (hKv10.1): Not active | Channel modulating activity, Kv3.1 (hKv3.1): Not active | Channel modulating activity, Kv1.2 (rKv1.2): Not active | Channel modulating activity, Kv1.4 (rKv1.4): Not active | Channel modulating activity, Kv4.2 (rKv4.2): Not active | Channel modulating activity, Nav1.4 (rNav1.4): Not active | Antimicrobial activity, overall [1]: did not reveal activity against fungi, Gram-positive or Gram-negative bacteria | Antimicrobial activity, overall ([1]; listed as recombinant analog of magnificamide): does not show antimicrobial or channel modulating activities
